Consider two compounds from paper PMC8949931, “cADPR Does Not Activate TRPM2” (International Journal of Molecular Sciences, 2022).

For assay [1], the target named is T1, drTRPM2 (TRPM2 from zebrafish) (Danio rerio, UniProt A0A0R4IMY7).
T1 construct: isolated MHR1/2 domain, residues 1-419 of drTRPM2, N-terminal His6-tag
T1 sequence (A0A0R4IMY7 1-419): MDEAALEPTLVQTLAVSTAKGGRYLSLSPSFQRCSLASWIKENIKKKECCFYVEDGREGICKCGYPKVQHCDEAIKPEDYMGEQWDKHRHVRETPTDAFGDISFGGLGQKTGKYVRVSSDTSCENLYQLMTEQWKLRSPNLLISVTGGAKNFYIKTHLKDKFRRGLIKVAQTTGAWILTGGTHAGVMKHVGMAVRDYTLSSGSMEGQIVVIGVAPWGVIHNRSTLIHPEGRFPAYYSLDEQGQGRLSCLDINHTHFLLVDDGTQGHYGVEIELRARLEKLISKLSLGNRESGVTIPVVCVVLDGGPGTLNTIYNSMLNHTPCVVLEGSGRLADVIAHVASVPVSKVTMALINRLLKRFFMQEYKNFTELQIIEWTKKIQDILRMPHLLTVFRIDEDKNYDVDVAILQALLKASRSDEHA
Kind of assay: isothermal titration calorimetry (ITC), purified domain, […] °C. Type of assay: binding.

The target of a further assay is T2, human TRPM2 (Homo sapiens, UniProt O94759).
T2 construct: full-length channel stably expressed in HEK293 cells
T2 sequence (O94759 whole entry): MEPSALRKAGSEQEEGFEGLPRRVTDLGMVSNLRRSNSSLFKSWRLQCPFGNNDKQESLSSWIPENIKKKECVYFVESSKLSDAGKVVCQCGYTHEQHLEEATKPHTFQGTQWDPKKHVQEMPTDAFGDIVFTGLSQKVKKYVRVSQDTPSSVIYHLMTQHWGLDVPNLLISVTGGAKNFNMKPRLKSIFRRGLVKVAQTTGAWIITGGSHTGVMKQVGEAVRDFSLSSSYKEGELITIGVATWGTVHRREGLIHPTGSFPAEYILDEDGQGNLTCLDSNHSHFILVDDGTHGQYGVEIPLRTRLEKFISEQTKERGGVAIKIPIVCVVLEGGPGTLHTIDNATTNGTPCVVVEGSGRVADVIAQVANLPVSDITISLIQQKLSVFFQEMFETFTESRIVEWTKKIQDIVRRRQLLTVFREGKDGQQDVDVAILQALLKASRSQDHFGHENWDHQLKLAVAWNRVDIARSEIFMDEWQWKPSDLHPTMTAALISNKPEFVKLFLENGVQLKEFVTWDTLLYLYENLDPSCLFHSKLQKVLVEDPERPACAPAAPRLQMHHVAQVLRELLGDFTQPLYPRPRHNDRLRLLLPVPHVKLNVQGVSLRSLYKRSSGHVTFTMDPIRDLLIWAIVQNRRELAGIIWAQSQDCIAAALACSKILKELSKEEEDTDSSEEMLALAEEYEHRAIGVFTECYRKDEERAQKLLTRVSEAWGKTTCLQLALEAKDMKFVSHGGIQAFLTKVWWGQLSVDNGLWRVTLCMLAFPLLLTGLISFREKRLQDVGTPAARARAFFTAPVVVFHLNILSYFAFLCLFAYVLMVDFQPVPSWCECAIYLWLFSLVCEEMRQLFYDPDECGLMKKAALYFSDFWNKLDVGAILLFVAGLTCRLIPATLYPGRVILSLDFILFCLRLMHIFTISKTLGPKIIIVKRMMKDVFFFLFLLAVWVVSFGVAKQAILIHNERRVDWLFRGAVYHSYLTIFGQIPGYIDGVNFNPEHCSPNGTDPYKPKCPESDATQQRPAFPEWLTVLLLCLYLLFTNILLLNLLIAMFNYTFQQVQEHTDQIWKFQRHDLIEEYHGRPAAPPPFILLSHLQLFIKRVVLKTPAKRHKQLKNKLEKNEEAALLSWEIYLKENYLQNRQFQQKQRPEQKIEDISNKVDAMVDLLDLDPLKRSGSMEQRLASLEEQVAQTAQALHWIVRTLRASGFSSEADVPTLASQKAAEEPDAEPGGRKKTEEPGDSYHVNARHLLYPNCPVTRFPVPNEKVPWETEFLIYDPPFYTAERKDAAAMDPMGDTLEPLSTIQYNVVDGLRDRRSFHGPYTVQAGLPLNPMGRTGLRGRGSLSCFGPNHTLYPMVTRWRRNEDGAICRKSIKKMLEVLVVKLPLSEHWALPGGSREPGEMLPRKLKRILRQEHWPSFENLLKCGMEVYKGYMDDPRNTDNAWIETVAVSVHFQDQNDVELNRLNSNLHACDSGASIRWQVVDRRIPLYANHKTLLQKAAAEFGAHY
Kind of assay: whole-cell patch clamp, […] coinfused with […] ADPR. Type of assay: cell-based. In general terms: The patch-clamp technique gives a direct electrical read-out from membranes.

As for `Nc1ncnc2c1ncn2[C@@H]1O[C@H](COP(=O)(O)OP(=O)(O)OC[C@H]2OC(O)[C@H](O)[C@@H]2O)[C@@H](O)[C@H]1O` (stereo partly drawn) [ADPR], in assay [1], the Kd was found to be 2200 nM. Take `Nc1ncnc2c1nc(Br)n2[C@@H]1O[C@H](COP(=O)(O)OP(=O)(O)OC[C@H]2OC(O)[C@H](O)[C@@H]2O)[C@@H](O)[C@H]1O` (stereo partly drawn) [8-Br-ADPR]: in assay [1], the Kd stood at 1400 nM. Moreover, on human TRPM2, the “whole-cell patch clamp, 1 mM coinfused with 125 μM ADPR” value is 8-Br-ADPR and 8-Br-cADPR reduce the ADPR-induced current in TRPM2-expressing HEK293 cells.

As a reminder, the Kd is the concentration at which binding is half-saturated. The low end stands for a tighter complex, the high end for a looser complex.
